Test results: patent publication US11186592B2, “Thiazolopyridine derivatives as adenosine receptor antagonists” (MERCK PATENT GMBH, priority 2017, dated 2021)

Legend:
Format in all cases: cell-based
human A3 receptor = molecular target: T1, human A3 receptor (Homo sapiens, UniProt P0DMS8); experiment: cAMP (HTRF) functional assay, recombinant CHO cells expressing human A3 receptor, forskolin + agonist IB-MECA
T1 construct: expressed in transfected cells; host or cells: CHO
T1 sequence (P0DMS8 1-318): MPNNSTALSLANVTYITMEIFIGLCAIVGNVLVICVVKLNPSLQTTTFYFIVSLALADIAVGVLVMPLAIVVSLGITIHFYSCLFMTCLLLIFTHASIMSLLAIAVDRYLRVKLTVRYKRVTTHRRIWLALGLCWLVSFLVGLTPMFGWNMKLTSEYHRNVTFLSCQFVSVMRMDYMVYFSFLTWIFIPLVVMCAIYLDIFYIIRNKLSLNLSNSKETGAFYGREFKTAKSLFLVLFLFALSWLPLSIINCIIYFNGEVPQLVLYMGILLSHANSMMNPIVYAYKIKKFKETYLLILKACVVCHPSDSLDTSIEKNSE
Experimental: (§1) The functional activities of human A2A, A2B, A1 and A3 receptors were determined by quantification of cAMP, being the second messenger for adenosine receptors.
(§2) For human A1 and A3 receptors, recombinant CHO cells, expressing either A1 or A3-receptor, were used. As both receptors couple to Gi proteins, the assay protocol was adapted:
(§3) Cells were seeded into 384-well plates, forskolin, test compounds and agonists (CPA for A1- and IB-MECA for A3-receptor) were added. After 30 min incubation, HTRF reagents (cAMP dynamic 2, Cis Bio) were added and the cellular cAMP levels were determined using the ENVISION (Perkin Elmer) plate reader. Obtained raw data were normalized against the inhibitor control and the neural control (DMSO) and the normalized data were fitted using GeneData software.

human A2B receptor = molecular target: T2, human A2B receptor (Homo sapiens, UniProt P29275); experiment: cAMP (HTRF) functional assay, recombinant HEK293 cells expressing human A2B receptor, agonist NECA
T2 construct: expressed in transfected cells; host or cells: HEK293
T2 sequence (P29275 1-332): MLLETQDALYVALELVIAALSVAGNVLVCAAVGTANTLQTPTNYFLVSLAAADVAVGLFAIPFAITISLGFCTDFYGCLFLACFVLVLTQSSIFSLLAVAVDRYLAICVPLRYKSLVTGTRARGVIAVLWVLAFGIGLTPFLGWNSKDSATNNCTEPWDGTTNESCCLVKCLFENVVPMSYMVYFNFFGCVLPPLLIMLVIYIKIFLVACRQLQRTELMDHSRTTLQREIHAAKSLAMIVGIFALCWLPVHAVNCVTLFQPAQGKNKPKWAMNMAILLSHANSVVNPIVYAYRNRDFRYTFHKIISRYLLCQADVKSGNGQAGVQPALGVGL
Experimental: as §1, §3

human A2A receptor = molecular target: T3, human A2A receptor (Homo sapiens, UniProt P29274); experiment: cAMP (HTRF) functional assay, recombinant HEK293 cells expressing human A2A receptor, agonist NECA
T3 construct: expressed in transfected cells; host or cells: HEK293
Experimental: as §1, §3

human A1 receptor = molecular target: T4, human A1 receptor (Homo sapiens, UniProt P30542); experiment: cAMP (HTRF) functional assay, recombinant CHO cells expressing human A1 receptor, forskolin + agonist CPA
T4 construct: expressed in transfected cells; host or cells: CHO
T4 sequence (P30542 1-326): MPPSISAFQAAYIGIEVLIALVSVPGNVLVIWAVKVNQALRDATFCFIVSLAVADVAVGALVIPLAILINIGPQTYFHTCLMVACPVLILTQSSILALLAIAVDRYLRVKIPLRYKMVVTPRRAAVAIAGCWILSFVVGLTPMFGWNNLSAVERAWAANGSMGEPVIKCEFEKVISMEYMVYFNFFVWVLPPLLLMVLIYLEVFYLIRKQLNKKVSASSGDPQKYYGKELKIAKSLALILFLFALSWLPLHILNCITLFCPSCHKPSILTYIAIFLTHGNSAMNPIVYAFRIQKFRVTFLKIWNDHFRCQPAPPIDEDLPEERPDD
Experimental: as §1, §2, §3

T3 sequence (P29274 whole entry): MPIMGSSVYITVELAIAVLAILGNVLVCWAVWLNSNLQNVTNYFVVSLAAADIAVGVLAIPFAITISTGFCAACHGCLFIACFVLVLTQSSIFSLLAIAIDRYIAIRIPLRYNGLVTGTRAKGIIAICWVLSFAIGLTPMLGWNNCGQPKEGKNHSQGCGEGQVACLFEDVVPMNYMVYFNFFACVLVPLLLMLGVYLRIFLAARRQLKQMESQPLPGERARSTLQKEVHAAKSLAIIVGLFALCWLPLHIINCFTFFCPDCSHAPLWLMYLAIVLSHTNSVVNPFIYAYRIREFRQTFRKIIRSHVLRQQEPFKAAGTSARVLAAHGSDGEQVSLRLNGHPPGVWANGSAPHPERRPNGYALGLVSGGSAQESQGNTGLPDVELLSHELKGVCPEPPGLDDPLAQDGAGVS

SMILES	IC50 (human A3 receptor)	IC50 (human A2B receptor)	IC50 (human A2A receptor)	IC50 (human A1 receptor)
COc1ncc(N2CCOCC2)c2sc(NC(=O)N3CCC(O)(Cc4ccccc4)CC3)nc12 [compound 7, 4-benzyl-4-hydroxy-N-[4-methoxy-7-(morpholin-4-yl)-[1,3]thiazolo[4,5-c]pyridin-2-yl]piperidine-1-carboxamide]	> 1 µM	< 0.1 µM	< 0.1 µM	< 1 µM
COc1ncc(N2CCOCC2)c2sc(NC(=O)N3CCC4(CCOC4)C3)nc12 (stereo not drawn) [compound 9, 2-Oxa-7-aza-spiro[4.4]nonane-7-carboxylic acid (4-methoxy-7-morpholin-4-yl-thiazolo[4,5-c]pyridin-2-yl)-amide]	> 1 µM	< 1 µM	< 0.01 µM	> 1 µM
COc1ncc(N2CCOCC2)c2sc(NC(=O)c3ccc(C(=O)N(C)C)cc3)nc12 [compound 15, N-(4-Methoxy-7-morpholin-4-yl-thiazolo[4,5-c]pyridin-2-yl)-N′,N′-dimethyl-terephthalamide]	> 1 µM	< 0.1 µM	< 0.01 µM	> 1 µM
COc1ncc(N2CCOCC2)c2sc(NC(=O)N3CC[C@]4(CCOC4)C3)nc12 [compound 17, (5S)-N-[4-methoxy-7-(morpholin-4-yl)-[1,3]thiazolo[4,5-c]pyridin-2-yl]-2-oxa-7-azaspiro[4.4]nonane-7-carboxamide]	> 1 µM	< 1 µM	< 0.01 µM	> 1 µM
COc1ncc(N2CCOCC2)c2sc(NC(=O)N3CC[C@@]4(CCOC4)C3)nc12 [compound 18, (5R)-N-[4-methoxy-7-(morpholin-4-yl)-[1,3]thiazolo[4,5-c]pyridin-2-yl]-2-oxa-7-azaspiro[4.4]nonane-7-carboxamide]	> 1 µM	< 1 µM	< 0.01 µM	> 1 µM
COc1ncc(-c2cnn(C)c2)c2sc(NC(=O)c3cnc(C)s3)nc12 [compound 131, 2-Methyl-thiazole-5-carboxylic acid [4-methoxy-7-(1-methyl-1H-pyrazol-4-yl)-thiazolo[4,5-c]pyridin-2-yl]-amide]	> 1 µM	< 0.1 µM	< 0.01 µM	–
COc1ncc(-c2cccnc2)c2sc(NC(=O)c3ccc(C(=O)N(C)C)cc3)nc12 [compound 218, N-(4-Methoxy-7-pyridin-3-yl-thiazolo[4,5-c]pyridin-2-yl)-N′,N′-dimethyl-terephthalamide]	> 1 µM	< 0.1 µM	< 0.01 µM	–
COc1nc(C)c(-c2ccccc2)c2sc(NC(=O)N3CCC4(CCOCC4)C3)nc12 [compound 223, 8-Oxa-2-aza-spiro[4.5]decane-2-carboxylic acid (4-methoxy-6-methyl-7-phenyl-thiazolo[4,5-c]pyridin-2-yl)-amide]	> 1 µM	< 0.1 µM	< 0.01 µM	–
COCCOc1cccc(-c2cnc(OC)c3nc(NC(=O)N4CCC5(CCOCC5)C4)sc23)c1 [compound 225, 8-Oxa-2-aza-spiro[4.5]decane-2-carboxylic acid (4-methoxy-7-[3-(2-methoxy-ethoxy)-phenyl]-thiazolo[4,5-c]pyridin-2-yl}-amide]	> 1 µM	< 0.1 µM	< 0.01 µM	–
COc1nc(F)c(N2CCOCC2)c2sc(NC(=O)c3ccc(N4C(=O)CCC4=O)cc3)nc12 [compound 226, 4-(2,5-Dioxo-pyrrolidin-1-yl)-N-(6-fluoro-4-methoxy-7-morpholin-4-yl-thiazolo[4,5-c]pyridin-2-yl)-benzamide]	> 1 µM	< 0.01 µM	< 0.01 µM	–
COc1ncc(-c2ccccc2)c2sc(NC(=O)c3ccc(C(=O)N(C)CCO)cc3)nc12 [compound 227, N-(2-Hydroxy-ethyl)-N′-(4-methoxy-7-phenyl-thiazolo[4,5-c]pyridin-2-yl)-N-methyl-terephthalamide]	> 1 µM	< 0.01 µM	< 0.01 µM	–

Continued, values first:

IC50 (human A3 receptor)	IC50 (human A2B receptor)	IC50 (human A2A receptor)	IC50 (human A1 receptor)	SMILES
< 1 µM	< 0.1 µM	< 0.1 µM	< 1 µM	COc1ncc(-c2ccccc2)c2sc(NC(=O)[C@H]3C[C@@H]3OC)nc12 (racemic) [compound 202, (1S,2S)-2-methoxy-N-{4-methoxy-7-phenyl-[1,3]thiazolo[4,5-c]pyridin-2-yl}cyclopropane-1-carboxamide]
< 1 µM	< 1 µM	< 0.01 µM	> 1 µM	COCc1ccc(C(=O)Nc2nc3c(OC)ncc(N4CCOCC4)c3s2)cc1 [compound 3, 4-Methoxymethyl-N-(4-methoxy-7-morpholin-4-yl-thiazolo[4,5-c]pyridin-2-yl)-benzamide]
< 1 µM	< 1 µM	< 0.01 µM	< 1 µM	COCc1ccc(C(=O)Nc2nc3c(OC)ncc(-c4cnn(C)c4)c3s2)cc1 [compound 14]
< 1 µM	< 0.1 µM	< 0.01 µM	< 1 µM	COc1ncc(-c2cnn(C)c2)c2sc(NC(=O)N3CCC(C)(O)CC3)nc12 [compound 21, 4-Hydroxy-4-methyl-piperidine-1-carboxylic acid [4-methoxy-7-(1-methyl-1H-pyrazol-4-yl)-thiazolo[4,5-c]pyridin-2-yl]-amide]
< 1 µM	< 0.01 µM	< 0.01 µM	–	COc1nc(F)c(N2CCOCC2)c2sc(NC(=O)c3cnn(C)c3)nc12 [compound 165, 1-Methyl-1H-pyrazole-4-carboxylic acid (6-fluoro-4-methoxy-7-morpholin-4-yl-thiazolo[4,5-c]pyridin-2-yl)-amide]
< 1 µM	< 0.1 µM	< 0.01 µM	–	COc1nc(Br)c(N2CCOCC2)c2sc(NC(=O)c3cnn(C)c3)nc12 [compound 178, 1-Methyl-1H-pyrazole-4-carboxylic acid (6-bromo-4-methoxy-7-morpholin-4-yl-thiazolo[4,5-c]pyridin-2-yl)-amide]
< 1 µM	< 0.01 µM	< 0.01 µM	–	COc1ncc(-c2ccccc2)c2sc(NC(=O)c3cnn(C)c3)nc12 [compound 188, 1-Methyl-1H-pyrazole-4-carboxylic acid (4-methoxy-7-phenyl-thiazolo[4,5-c]pyridin-2-yl)-amide]
< 1 µM	< 0.1 µM	< 0.01 µM	–	COc1nc(C#N)c(N2CCOCC2)c2sc(NC(=O)c3cnn(C)c3)nc12 [compound 217, 1-Methyl-1H-pyrazole-4-carboxylic acid (6-cyano-4-methoxy-7-morpholin-4-yl-thiazolo[4,5-c]pyridin-2-yl)-amide]
< 1 µM	< 0.1 µM	< 0.01 µM	–	COc1nc(Cl)c(N2CCOCC2)c2sc(NC(=O)c3cnn(C)c3)nc12 [compound 221, 1-Methyl-1H-pyrazole-4-carboxylic acid (6-chloro-4-methoxy-7-morpholin-4-yl-thiazolo[4,5-c]pyridin-2-yl)-amide]
< 1 µM	< 0.1 µM	< 0.01 µM	–	COCCOc1cccc(-c2cnc(OC)c3nc(NC(=O)c4ccc(C(=O)N(C)C)cc4)sc23)c1 [compound 224, N-{4-Methoxy-7-[3-(2-methoxy-ethoxy)-phenyl]-thiazolo[4,5-c]pyridin-2-yl}-N′,N′-dimethyl-terephthalamide]
< 1 µM	< 0.1 µM	< 0.01 µM	–	COc1ncc(-c2ccccc2)c2sc(NC(=O)c3ccc(C(=O)NCCO)cc3)nc12 [compound 228, N-(2-Hydroxy-ethyl)-N′-(4-methoxy-7-phenyl-thiazolo[4,5-c]pyridin-2-yl)-terephthalamide]
< 1 µM	< 0.1 µM	< 0.01 µM	–	COc1ncc(-c2ccccc2)c2sc(NC(=O)c3ccc(C(=O)NCCN(C)C)cc3)nc12 [compound 230, N-(2-Dimethylamino-ethyl)-N′-(4-methoxy-7-phenyl-thiazolo[4,5-c]pyridin-2-yl)-terephthalamide]
